# Tests used:
# NCI-H929 xenograft tumor = test: Pharmacodynamic test: NCI-H929 xenograft tumor in CB-17 SCID mice; format: in vivo; settings: for Number of remaining animals/group: 1 mg/kg qd/11 d, oral
# Method: This experiment was performed to evaluate the inhibition effect of the compound of Example 1 and the control example CC-92480 on the growth of human multiple myeloma cell NCI-H929 xenograft tumor in CB-17 SCID mice.
# Solutions of the compound of Example 1 and the control example CC-92480 were prepared with 5% DMSO+20% PEG400+70% (10% TPGS)+5% (1% HPMC K100LV).
# Thirty CB-17 SCID female mice, purchased from Beijing Vital River Laboratory Animal Technology Co., Ltd. (certificate No. 20170011006049, SCXK (Shanghai) 2017-0011), weighing about 19 g at the time of purchase, were bred at 5 mice/cage (in a 12/12 hour light/dark cycle, at a constant temperature of 23±1° C. and humidity of 50%-60%) and had free access to food and water.
# After adaptive feeding, the CB-17 SCID mice were grouped as follows:
# NCI-H929 cells in a logarithmic growth phase were inoculated subcutaneously into the right flank of 30 female CB-17 SCID mice at 5×10^6 cells/mouse/100 μL (containing […] of Matrigel). After 10 days, when the tumor volume of the tumor-bearing mice reached about 200 mm^3, the mice were randomly divided into 3 groups according to the tumor volume and body weight: vehicle control group, CC-92480-1 mpk, compound of Example 1-1 mpk, with […]. The day of grouping was set as Day 0 (DO), and intragastric administration was performed once a day for 11 days (Table 2). For the tumor-bearing mice, the tumor volume was measured with a vernier caliper and the body weight was measured with a balance twice a week, and the data were recorded.
# The tumor volume (V) was calculated as follows: V=1/2×a×b^2, where a and b represent length and width, respectively.
# The relative tumor proliferation rate T/C (%)=(T−T0)/(C−C0)×100(%), where T and C are the tumor volume of animals at the end of the experiment in the treatment group and control group, respectively; T0 and C0 are the tumor volume of animals at the beginning of the experiment in the treatment group and control group, respectively. […]
# [1] = Hygroscopicity study of crystal forms (dynamic vapour sorption, 25° C.); format: physicochemical; settings: for Crystal form after hygroscopicity test: two cycles
# From the text: According to the “9103 Guideline for Hygroscopicity for Pharmaceuticals” in Part IV of the 2015 edition of the Chinese Pharmacopoeia, descriptions of hygroscopic characteristics and definitions of hygroscopic weight gain are as follows; • Deliquescent: Absorbs sufficient moisture to form a liquid; • Extremely hygroscopic: Hygroscopic weight gain is no less than 15%; • Hygroscopic: Hygroscopic weight gain is less than 15% but no less than 2%; • Slightly hygroscopic: Hygroscopic weight gain is less than 2% but no less than 0.2%; • Non-hygroscopic or nearly non-hygroscopic: Hygroscopic weight gain is less than 0.2%.
# Compound of Formula (I) (Oct. 15, 2021, Nanjing) 03881 Using the Surface Measurement Systems advantage 2, at a temperature of 25° C., and starting at a humidity of 50%, the humidity range was examined from […] to 95%, with increments of 10%. The criterion for evaluation was that the mass change dM/dT at each gradient was less than 0.002%, TMAX was 360 min, and the process was cycled twice.
# [2] = Long-term/accelerated stability of crystal forms (25° C. 60% RH and 40° C. 75% RH); format: physicochemical; settings: for physical and chemical stability, long-term accelerated conditions: 25° C. 60% RH and 40° C. 75% RH, six months
# Method: The crystal forms D, E, Q, and U of the compound of formula (I) were respectively placed under conditions of 25° C. with 60% RH and 40° C. with 75% RH to evaluate their stability.
# [3] = Influencing factor stability of crystal forms (light, high temperature, high humidity, 30 days); format: physicochemical; settings: for change in purity under 60° C. and light: 60° C. and light (4500 Lux); for change in purity under 60° C. and light / physicochemical stability under high humidity: open; for physicochemical stability under high humidity: high humidity conditions of 75% and 92.5%; for crystal form after influencing factor experiments: light, high temperature, high humidity
# Method: Each crystal form was spread out in an open exposure setup, and the stability of the samples under conditions of light (4500 Lux), high temperature (40° C., 60° C.), and high humidity (RH 75 RH 92.5%) was examined separately. The sampling inspection period was 30 days.
# [4] = 92.5% RH, 14 days, open exposure
# [5] = 92.5% RH, 30 days, open exposure
# [6] = light 4500 Lux, 7 days, open exposure
# [7] = light 4500 Lux, 14 days, open exposure
# [8] = light 4500 Lux, 30 days, open exposure
# [9] = 92.5% RH, 7 days, open exposure
smiles,measurement,setting,value
"N#Cc1ccc(N2CCN(Cc3ccc(COc4cccc5c4CN([C@H]4CCC(=O)NC4=O)C5=O)cc3)CC2)c(F)c1 [CC-92480, reference compound]",Number of remaining animals/group,NCI-H929 xenograft tumor,7/7
"N#Cc1ccc(N2CCC(Sc3ccc(COc4cccc5c4CN([C@H]4CCC(=O)NC4=O)C5=O)cn3)CC2)c(F)c1 [Crystal form Q, (S)-4-(4-((5-(((2-(2,6-dioxopiperidin-3-yl)-1-oxoisoindolin-4-yl)oxy)methyl)pyridin-2-yl)thio)piperidin-1-yl)-3-fluorobenzonitrile]",Hygroscopic weight change 0.0% RH-95.0% RH,[1],0.67%
same,Hygroscopic weight change 20% RH-80% RH,[1],0.24%
same,Hygroscopicity class (20% RH-80% RH),[1],(slightly hygroscopic)
same,Crystal form after hygroscopicity test,[1],Untransformed
same,"physical and chemical stability, long-term accelerated conditions",[2],good physical and chemical stability
same,Purity % 1 month,"[2]; 25° C., 60% RH",99.5%
same,Purity % 2 months,"[2]; 25° C., 60% RH",99.5%
same,Purity % 3 months,"[2]; 25° C., 60% RH",99.5%
same,Purity % 1 month,"[2]; 40° C., 75% RH",99.5%
same,Purity % 2 months,"[2]; 40° C., 75% RH",99.4%
same,Purity % 3 months,"[2]; 40° C., 75% RH",99.4%
same,Purity % 6 months,"[2]; 40° C., 75% RH",99.1%
same,Purity % Onset,[2],99.6%
same,Color and character,"[3]; 40° C., 7 days, open exposure",White solid
same,Purity %,"[3]; 40° C., 7 days, open exposure",99.5%
same,Color and character,"[3]; 40° C., 14 days, open exposure",White solid
same,Purity %,"[3]; 40° C., 14 days, open exposure, listed as Free crystal form Q",99.4%
same,Color and character,"[3]; 40° C., 30 days, open exposure",White solid
same,Purity %,"[3]; 40° C., 30 days, open exposure, listed as Free crystal form Q",99.1%
same,change in purity under 60° C. and light,[3]; 30 days,slight decrease in purity
same,Color and character,"[3]; 60° C., 7 days, open exposure",White solid
same,Purity %,"[3]; 60° C., 7 days, open exposure, listed as Free crystal form Q",99.3%
same,Color and character,"[3]; 60° C., 14 days, open exposure",White solid
same,Purity %,"[3]; 60° C., 14 days, open exposure, listed as Free crystal form Q",98.9%
same,Color and character,"[3]; 60° C., 30 days, open exposure",White solid
same,Purity %,"[3]; 60° C., 30 days, open exposure, listed as Free crystal form Q",98.5%
same,Color and character,"[3]; 75% RH, 7 days, open exposure",White solid
same,Purity %,"[3]; 75% RH, 7 days, open exposure",99.6%
same,Color and character,"[3]; 75% RH, 14 days, open exposure",White solid
same,Purity %,"[3]; 75% RH, 14 days, open exposure, listed as Free crystal form Q",99.6%
same,Color and character,"[3]; 75% RH, 30 days, open exposure",White solid
same,Purity %,"[3]; 75% RH, 30 days, open exposure, listed as Free crystal form Q",99.6%
same,Color and character,[3]; [4],White solid
same,Purity %,"[3]; 92.5% RH, 14 days, open exposure, listed as Free crystal form Q",99.6%
same,Color and character,[3]; [5],White solid
same,Purity %,"[3]; 92.5% RH, 30 days, open exposure, listed as Free crystal form Q",99.5%
same,Color and character,"[3]; Onset, 0 days",White solid
same,Purity %,"[3]; Onset, 0 days, listed as Free crystal form Q",99.6%
same,physicochemical stability under high humidity,[3]; 30 days,good physicochemical stability
same,Color and character,[3]; [6],White solid
same,Purity %,"[3]; light 4500 Lux, 7 days, open exposure, listed as Free crystal form Q",99.5%
same,Color and character,[3]; [7],White solid
same,Purity %,"[3]; light 4500 Lux, 14 days, open exposure, listed as Free crystal form Q",98.8%
same,Color and character,[3]; [8],White solid
same,Purity %,"[3]; light 4500 Lux, 30 days, open exposure, listed as Free crystal form Q",93.9%
same,crystal form after influencing factor experiments,[3]; 30 days,remain unchanged
"N#Cc1ccc(N2CCC(Sc3ccc(COc4cccc5c4CN([C@H]4CCC(=O)NC4=O)C5=O)cn3)CC2)c(F)c1 [Crystal form U, (S)-4-(4-((5-(((2-(2,6-dioxopiperidin-3-yl)-1-oxoisoindolin-4-yl)oxy)methyl)pyridin-2-yl)thio)piperidin-1-yl)-3-fluorobenzonitrile]",Hygroscopic weight change 0.0% RH-95.0% RH,[1],2.06%
same,Hygroscopic weight change 20% RH-80% RH,[1],1.03%
same,Hygroscopicity class (20% RH-80% RH),[1],(slightly hygroscopic)
same,Crystal form after hygroscopicity test,[1],Untransformed
same,"physical and chemical stability, long-term accelerated conditions",[2],good physical and chemical stability
same,Purity % 1 month,"[2]; 25° C., 60% RH",99.7%
same,Purity % 2 months,"[2]; 25° C., 60% RH",99.6%
same,Purity % 3 months,"[2]; 25° C., 60% RH",99.6%
same,Purity % 1 month,"[2]; 40° C., 75% RH",99.7%
same,Purity % 2 months,"[2]; 40° C., 75% RH",99.6%
same,Purity % 3 months,"[2]; 40° C., 75% RH",99.6%
same,Purity % 6 months,"[2]; 40° C., 75% RH",99.5%
same,Purity % Onset,[2],99.7%
same,Color and character,"[3]; 40° C., 7 days, open exposure",White solid
same,Purity %,"[3]; 40° C., 7 days, open exposure",99.5%
same,Color and character,"[3]; 40° C., 14 days, open exposure",White solid
same,Purity %,"[3]; 40° C., 14 days, open exposure, listed as Free crystal form U",99.3%
same,Color and character,"[3]; 40° C., 30 days, open exposure",White solid
same,Purity %,"[3]; 40° C., 30 days, open exposure, listed as Free crystal form U",98.8%
same,change in purity under 60° C. and light,[3]; 30 days,slight decrease in purity
same,Color and character,"[3]; 60° C., 7 days, open exposure",White solid
same,Purity %,"[3]; 60° C., 7 days, open exposure, listed as Free crystal form U",98.9%
same,Color and character,"[3]; 60° C., 14 days, open exposure",White solid
same,Purity %,"[3]; 60° C., 14 days, open exposure, listed as Free crystal form U",98.5%
same,Color and character,"[3]; 60° C., 30 days, open exposure",White solid
same,Purity %,"[3]; 60° C., 30 days, open exposure, listed as Free crystal form U",97.5%
same,Color and character,"[3]; 75% RH, 7 days, open exposure",White solid
same,Purity %,"[3]; 75% RH, 7 days, open exposure",99.6%
same,Color and character,"[3]; 75% RH, 14 days, open exposure",White solid
same,Purity %,"[3]; 75% RH, 14 days, open exposure, listed as Free crystal form U",99.7%
same,Color and character,"[3]; 75% RH, 30 days, open exposure",White solid
same,Purity %,"[3]; 75% RH, 30 days, open exposure, listed as Free crystal form U",99.6%
same,Color and character,[3]; [9],White solid
same,Purity %,[3]; [9],99.7%
same,Color and character,[3]; [4],White solid
same,Purity %,"[3]; 92.5% RH, 14 days, open exposure, listed as Free crystal form U",99.7%
same,Color and character,[3]; [5],White solid
same,Purity %,"[3]; 92.5% RH, 30 days, open exposure, listed as Free crystal form U",99.6%
same,Color and character,"[3]; Onset, 0 days",White solid
same,Purity %,"[3]; Onset, 0 days, listed as Free crystal form U",99.7%
same,physicochemical stability under high humidity,[3]; 30 days,good physicochemical stability
same,Color and character,[3]; [6],White solid
same,Purity %,"[3]; light 4500 Lux, 7 days, open exposure, listed as Free crystal form U",99.3%
same,Color and character,[3]; [7],White solid
same,Purity %,"[3]; light 4500 Lux, 14 days, open exposure, listed as Free crystal form U",99.3%
same,Color and character,[3]; [8],White solid
same,Purity %,"[3]; light 4500 Lux, 30 days, open exposure, listed as Free crystal form U",98.8%
same,crystal form after influencing factor experiments,[3]; 30 days,remain unchanged
"N#Cc1ccc(N2CCC(Sc3ccc(COc4cccc5c4CN([C@H]4CCC(=O)NC4=O)C5=O)cn3)CC2)c(F)c1 [Example 1, (S)-4-(4-((5-(((2-(2,6-dioxopiperidin-3-yl)-1-oxoisoindolin-4-yl)oxy)methyl)pyridin-2-yl)thio)piperidin-1-yl)-3-fluorobenzonitrile]",influence on the body weight of mice,"NCI-H929 xenograft tumor; 1 mg/kg qd, 11 days, CB-17 SCID mice",no influence
same,Number of remaining animals/group,NCI-H929 xenograft tumor,7/7

# Source: US20250154126A1, “CRYSTALLINE FORM OF SULFUR-CONTAINING ISOINDOLINE DERIVATIVE” (JIANGSU HENGRUI PHARMACEUTICALS CO., LTD., priority 2022, published 2025)
